We go through five compounds from patent US7666909B2, “Enhancement of alcohol metabolism” (priority 2005, dated 2010).

For series [1], the system named is mouse. To be noted: cited from earlier work.
Series [2] relates to ALDH. The series is described as follows: Formation of acetic acid from AcA by ALDH/NADH in the presence of D-GLAC (Reaction 6), gas chromatography. The following applies: 3 mmol D-GLAC, 0.3 mmol AcA, 5 units ALDH, NADH, phosphate buffer pH 6.865, stirred 6 hours; GC analysis. The class given is biochemical.
Series [3] in a line: Effect of D-glyceric acid on blood alcohol level in rats after intraperitoneal alcohol. The class given is in vivo, rat. The following applies: on average, both fasted and nonfasted rats; versus same alcohol dose without D-GLAC. On the procedure:
40 animals were fasted for 12 hours before the experiment, and 40 were fed normally. In the experiment, each rat received intraperitoneally an intoxicating single dose of alcohol (1.2 g/kg, 10% w/v) in physiological saline. […] The blood samples were then analysed by headspace gas chromatography.

The conditions of series [4]: large doses (1-5 g/kg) taken together with the alcohol (Crownover et al. 1986); cited from earlier work.
For series [5] the following is noted: oral administration during alcohol drinking (Tabakoff et al. 1989); cited from earlier work.

Take `CC=O` [AcA, acetaldehyde]: in series [1] (acute toxicity), the LD100 was 750 mg/kg.

Take `O=C(O)C(O)CO` [D-GLAC, D-glyceric acid]: the “Formation of acetic acid from AcA” value in series [2] is listed as “acetic acid had been formed”. The “Lower blood alcohol concentration than the corresponding control group” value in series [3] came to 20%. As for `CCO` [alcohol, ethyl alcohol], the LD70 in series [1] (in vivo) was 6500 mg/kg. `O=C(CO)[C@@H](O)[C@H](O)[C@H](O)CO` [fructose]: the “Enhancement of alcohol elimination rate” value in series [4] is “up to 20%”. As for `CSCC[C@H](N)C(=O)O` [methionine], the “Reduction in blood AcA concentrations” value in series [5] was 20%.
